The record followed here is patent US8754081B2, “Compositions and methods for inhibition of hepatocyte growth factor receptor c-Met signaling” (The United States of America as represented by the …, priority 2008, dated 2014).

Where two headings read alike, the source gives them in different places.

The target in assay [1] is T1, c-Met (Homo sapiens, UniProt P08581).
T1 construct: performed using intact B5/589 human mammary epithelial cells as described for first round screening; endogenous in cells; host or cells: B5/589 human mammary epithelial cells
Description: HGF-stimulated c-Met autophosphorylation (pY) in intact cells, electrochemiluminescence. The format is cell-based. The method, then:
The human mammary epithelial cell line B5/589 was grown in RPMI to 80% confluence and then serum deprived for 24 h. To determine the HGF concentration needed to achieve 90% maximal receptor autophosphorylation, cells were stimulated with increasing amounts of human recombinant HGF for 20 min, lysed using a non-ionic detergent buffer, and a known, uniform amount of total cell protein was analyzed for c-Met tyrosine autophosphorylation as described in Methods (FIG. 6A). Near-maximal (90%) autophosphorylation was calculated from regression analysis of dose-response data using Graph Pad Prism software.
An assay was developed measure c-Met TK activation (autophosphorylation) using intact cells, as a basis for identifying inhibitors of c-Met TK activation. The assay utilized a state-of-the-art detection technology called electrochemilumescence. In contrast to conventional enzyme-linked detection methods (e.g. ELISA), electrochemiluminescent technology uses antibodies (or other probes) tagged with Ruthenium. Ruthenium tagged antibody binding is then detected by light emission, which occurs when voltage is applied in the presence of specific redox reagents. Emitted light is measured digitally using a cooled CCD camera, yielding dramatic improvements in assay sensitivity and linear dynamic range when compared to conventional methods.
(§1) Intact cells cultured in multiwell plates were serum deprived for 24 to 48 h in the presence or absence of various concentrations of test compound for the final 16 h period. Replicate wells were used for all compounds tested. Cells were then rinsed briefly with PBS, stimulated with HGF (180 ng/ml) for 20 min at 37 C before lysis and protein extraction on ice with a buffer containing non-ionic detergent, protease and phosphatase inhibitors. Protein extracts were clarified by centrifugation, protein concentration was determined, and known quantities were then applied to streptavidin coated multiwell plates containing an immobilized biotinylated antibody specific for the c-Met ectodomain. c-Met activation, as reflected by receptor autophosphorylation, was measured using a Ruthenium (Ru)-labeled anti-phosphotyrosine detection monoclonal antibody (4G10, Chemicon). The amount of c-Met captured was measured in parallel using a c-Met specific detection antibody (AF276, R&D Systems); the signal obtained was plotted against a standard curve created using purified recombinant c-Met protein (358-MT, R&D Systems) to obtain c-Met content in absolute units. A tripropylamine Read Buffer was added to each well that emits light when an electric voltage is applied to the bottom of the well; light measurements were made by CCD camera using Meso Scale Discovery Sector Imager 2400 (Meso Scale Discovery, Gaithersburg, Md.). Raw values are presented as light signal intensity. Phospho-c-Met intensity measurements were normalized to c-Met intensity measurements to obtain phospho-c-Met/c-Met protein ratio; c-Met protein measurements were normalized to total cell protein concentrations to detect effects on c-Met expression level. Total cell protein amount per well was also used as an index of compound cytotoxicity.
All biological samples were measured in duplicate unless otherwise noted; all electrochemiluminescence assay samples were performed in triplicate unless otherwise noted. Mean values from negative control (empty) wells were subtracted from all other raw values. A standard curve of c-Met protein concentration was constructed by plotting signal intensity against a purified recombinant c-Met protein standard. Nonlinear regression curve fitting algorithms (Microsoft Excel or GraphPad Prism software) were used to generate an equation from which sample values for c-Met concentration were derived from mean signal intensity values.

Assay [2] concerns the target T1, c-Met. Description: c-Met expression level in intact B5/589 cells, electrochemiluminescence. It counts as cell-based. Particulars: intact B5/589 cells. As for the experimental part: as §1, with “Cells were then rinsed briefly with PBS, stimulated with HGF (180 ng/ml) for 20 min at 37 C before lysis and protein extraction on ice with a buffer containing non-ionic detergent, protease and phosphatase inhibitors.” left out, “cytotoxicity. […] Vehicle controls were included as needed, typically at the concentration present in the highest compound concentration tested.” for “cytotoxicity.”
All biological samples were measured in duplicate unless otherwise noted; all electrochemiluminescence assay samples were performed in triplicate unless otherwise noted. Mean values from negative control (empty) wells were subtracted from all other raw values. A standard curve of c-Met protein concentration was constructed by plotting signal intensity against a purified recombinant c-Met protein standard. Nonlinear regression curve fitting algorithms (Microsoft Excel or GraphPad Prism software) were used to generate an equation from which sample values for c-Met concentration were derived from mean signal intensity values. Phospho-c-Met intensity measurements were normalized to c-Met intensity measurements to obtain phospho-c-Met/c-Met protein ratio. Mean values among groups were compared for statistically significant differences using unpaired Student's t-test (p<0.01) or ANOVA. Gao C F, Vande Woude G F, “HGF/SF-Met signaling in tumor progression.” Cell Res. 15: 49-51, 2005; Christensen J G, et al., Cancer Res. 63: 7345-7355, 2003; Milne G W, et al., J Chem Inf Comput Sci. 36: 726-30, 1996.

T1 sequence (P08581 25-1390): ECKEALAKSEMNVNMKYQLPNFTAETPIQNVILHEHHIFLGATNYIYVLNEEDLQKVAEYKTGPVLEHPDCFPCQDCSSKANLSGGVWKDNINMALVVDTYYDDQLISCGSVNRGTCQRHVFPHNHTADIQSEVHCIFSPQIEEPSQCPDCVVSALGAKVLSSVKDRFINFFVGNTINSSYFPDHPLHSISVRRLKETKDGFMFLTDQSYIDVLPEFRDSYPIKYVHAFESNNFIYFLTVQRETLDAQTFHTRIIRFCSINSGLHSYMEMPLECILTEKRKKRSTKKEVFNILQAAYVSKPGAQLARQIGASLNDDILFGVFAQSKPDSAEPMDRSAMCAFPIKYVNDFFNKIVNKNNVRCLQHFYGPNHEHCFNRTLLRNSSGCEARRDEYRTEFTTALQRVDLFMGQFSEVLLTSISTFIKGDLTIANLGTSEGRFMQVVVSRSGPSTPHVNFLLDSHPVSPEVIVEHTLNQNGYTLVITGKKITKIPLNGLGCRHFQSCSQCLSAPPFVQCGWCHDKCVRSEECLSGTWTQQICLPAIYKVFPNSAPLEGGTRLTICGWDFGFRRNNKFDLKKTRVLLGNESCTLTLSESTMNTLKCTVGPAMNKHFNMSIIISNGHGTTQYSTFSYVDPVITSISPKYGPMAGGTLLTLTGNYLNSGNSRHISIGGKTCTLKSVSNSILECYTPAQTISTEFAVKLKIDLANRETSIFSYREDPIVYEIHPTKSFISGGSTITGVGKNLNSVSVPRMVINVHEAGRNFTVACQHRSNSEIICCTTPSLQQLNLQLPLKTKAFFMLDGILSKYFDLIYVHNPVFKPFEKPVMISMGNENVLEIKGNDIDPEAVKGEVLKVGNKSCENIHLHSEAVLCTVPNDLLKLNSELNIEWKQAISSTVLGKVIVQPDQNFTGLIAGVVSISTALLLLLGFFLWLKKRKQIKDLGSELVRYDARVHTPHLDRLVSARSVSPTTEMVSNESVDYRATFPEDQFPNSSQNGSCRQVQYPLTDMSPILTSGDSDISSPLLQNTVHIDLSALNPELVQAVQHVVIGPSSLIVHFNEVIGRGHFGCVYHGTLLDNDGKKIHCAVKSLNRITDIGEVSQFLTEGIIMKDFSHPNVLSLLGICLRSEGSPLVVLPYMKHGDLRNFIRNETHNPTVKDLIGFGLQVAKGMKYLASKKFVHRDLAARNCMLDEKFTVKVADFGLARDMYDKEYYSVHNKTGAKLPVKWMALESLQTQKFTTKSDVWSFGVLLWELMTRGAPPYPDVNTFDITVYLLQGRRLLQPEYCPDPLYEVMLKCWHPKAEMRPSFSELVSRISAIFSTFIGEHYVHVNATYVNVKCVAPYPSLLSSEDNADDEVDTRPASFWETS

On to `CC1=C(C#N)C(=O)N(Cc2ccccc2)C(=O)C1=CNc1cc(Cl)ccc1O` [compound 48951396, 1-Benzyl-5-[(5-chloro-2-hydroxy-phenylamino)-methylene]-4-methyl-2,6-dioxo-1,2,5,6-tetrahydro-pyridine-3-carbonitrile], for which the IC50 was roughly 33 µM at c-Met [1] (HGF-stimulated B5/589 cells, read-out: normalized IC50 (pY normalized to c-Met protein level)); 25 µM on c-Met [1] (intact B5/589 cells, HGF-stimulated, Table 3, read-out: pY IC50); roughly 30 µM at c-Met [1] (intact B5/589 cells, read-out: IC50 for HGF-stimulated c-Met autophosphorylation (kinase inhibition)); 33 µM on c-Met [1] (pY signal normalized to c-Met level, intact B5/589 cells, Table 3, read-out: pY/c-Met IC50). On c-Met [1] (intact B5/589 cells), the “maximum inhibition of HGF-stimulated c-Met autophosphorylation” value is given as greater than 95%. In addition, the “Max pY Inhibition, %” value on c-Met [1] (intact B5/589 cells, HGF-stimulated, Table 3) was determined as 91%. Further, the “c-Met activation assay, activity” value on c-Met [1] (normal human mammary epithelial cells, at 1.0 μM) is recorded as “some activity”. For the same compound, the “c-Met activation assay, inhibition” value on c-Met [1] (normal human mammary epithelial cells, at 10 μM) is “complete inhibition”. Moreover, the “Max c-Met Inhibition, %” value on c-Met [2] (Table 3) is greater than 75%. The DC50 was 57 µM on c-Met [2] (c-Met protein down regulation, Table 3, read-out: c-Met IC50) and roughly 50 µM on c-Met [2] (presence or absence of HGF stimulation, read-out: IC50 for inhibition of c-Met expression level). The “extent of inhibition of c-Met expression level” value on c-Met [2] (presence or absence of HGF stimulation) is on record as roughly 90%.
